Laboratory results taken from patent US20200361895A1, “NOVEL SULFONAMIDE CARBOXAMIDE COMPOUNDS” (Inflazome Limited, priority 2017, published 2020).
Counter-ions that a name gives are not always drawn.

Legend:
NLRP3 [1] = target: T1, NLRP3 (Homo sapiens, UniProt Q96P20); test: THP-1 cells pyroptosis assay (LPS + nigericin, resazurin readout; THP IC50); format: cell-based; design: Seed THP-1 cells (25,000 cells/well) containing 1.0 μg/ml LPS in 40 μl of RPMI medium; host or cells: THP-1 cells
Summary of the method: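 Human THP-1 cells, 25,000/well in serum-free RPMI with 1 μg/ml LPS, treated 3 hrs at 37° C with compound (8-point half-log, 10 μM top, 0.1% DMSO), then 5 μM nigericin 1 hr. Viability by 100 μM resazurin fluorescence after 1-2 hrs; IC50 by 4-parameter fit.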

NLRP3 [2] = target: T1, NLRP3; test: Human whole blood IL1β release assay (LPS + nigericin, AlphaLisa IL-1β; HWB IC50); format: cell-based; design: Human whole blood in Li-heparin tubes was obtained from healthy donors from a volunteer donor panel; from tissue; host or cells: human whole blood from healthy donors; conditions: IL-1β release
Procedure: For systemic delivery, the ability to inhibit NLRP3 when the compounds are present within the bloodstream is of great importance. For this reason, the NLRP3 inhibitory activity of a number of compounds in human whole blood was investigated in accordance with the following protocol.
Human whole blood in Li-heparin tubes was obtained from healthy donors from a volunteer donor panel. • 1. Plate out 80 μl of whole blood containing 1 μg/ml of LPS in 96-well, clear bottom cell culture plate (Corning #3585) • 2. Add 10 μl compound (8 points half-log dilution with 10 μM top dose) or vehicle (DMSO 0.1% FAC) to the appropriate wells • 3. Incubate for 3 hrs at 37° C., 5% CO2 • 4. Add 10 μl nigericin (Sigma #N7143) (10 μM FAC) to all wells • 5. Incubate for 1 hr at 37° C., 5% CO2 • 6. At the end of the incubation period, spin plates at 300×g for 5 mins to pellet cells and remove 20 μl of supernatant and add to 96-well v-bottom plates for IL-1β analysis (note: these plates containing the supernatants can be stored at −80° C. to be analysed at a later date) • 7. IL-1β was measured according to the manufacturer protocol (Perkin Elmer-AlphaLisa IL-1 Kit AL220F-5000) • 8. IC50 data is fitted to a non-linear regression equation (log inhibitor vs response-variable slope 4-parameters)

T1 sequence (Q96P20 whole entry): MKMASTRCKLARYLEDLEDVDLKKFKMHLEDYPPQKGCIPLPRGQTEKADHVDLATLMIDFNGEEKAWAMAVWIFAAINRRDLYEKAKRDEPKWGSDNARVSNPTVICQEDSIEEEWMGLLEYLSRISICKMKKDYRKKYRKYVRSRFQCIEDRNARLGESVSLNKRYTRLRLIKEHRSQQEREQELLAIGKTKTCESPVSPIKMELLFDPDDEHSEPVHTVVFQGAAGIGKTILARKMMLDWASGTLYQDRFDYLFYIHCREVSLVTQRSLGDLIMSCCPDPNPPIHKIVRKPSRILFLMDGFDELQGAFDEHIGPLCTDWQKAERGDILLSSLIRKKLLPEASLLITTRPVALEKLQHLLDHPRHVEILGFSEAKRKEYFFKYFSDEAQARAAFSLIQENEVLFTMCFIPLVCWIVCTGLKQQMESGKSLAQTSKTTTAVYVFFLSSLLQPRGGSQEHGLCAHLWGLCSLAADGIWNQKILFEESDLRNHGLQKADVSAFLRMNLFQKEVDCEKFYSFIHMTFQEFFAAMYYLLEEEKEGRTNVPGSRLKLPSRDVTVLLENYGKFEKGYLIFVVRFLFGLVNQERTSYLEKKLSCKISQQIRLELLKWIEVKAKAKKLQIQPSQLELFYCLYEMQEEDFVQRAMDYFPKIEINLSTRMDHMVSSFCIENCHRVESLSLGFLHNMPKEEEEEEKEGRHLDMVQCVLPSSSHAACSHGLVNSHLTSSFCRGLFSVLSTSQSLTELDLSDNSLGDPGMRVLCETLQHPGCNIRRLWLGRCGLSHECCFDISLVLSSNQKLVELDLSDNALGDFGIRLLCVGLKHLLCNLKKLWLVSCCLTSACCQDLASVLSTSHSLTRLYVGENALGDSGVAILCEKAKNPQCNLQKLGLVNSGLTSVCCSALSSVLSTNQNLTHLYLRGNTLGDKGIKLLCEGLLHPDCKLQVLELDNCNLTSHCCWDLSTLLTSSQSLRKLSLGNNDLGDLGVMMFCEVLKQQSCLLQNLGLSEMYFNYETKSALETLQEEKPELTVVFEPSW

Structure (SMILES) | IC50 (NLRP3 [1]) | IC50 (NLRP3 [2])
CN(C)c1cnnc(S(=O)(=O)NC(=O)Nc2c(-c3ccncc3)cc(F)c3c2CCC3)c1 [Example 121, 5-(Dimethylamino)-N-((7-fluoro-5-(pyridin-4-yl)-2,3-dihydro-1H-inden-4-yl)carbamoyl) pyridazine-3-sulfonamide] | ≤ 500 nM | ≤ 1000 nM
COc1cc(-c2ccc3c(c2NC(=O)NS(=O)(=O)N(C)CC2CCCN2C)CCC3)ccn1 (centres unmarked) [Example 123, 3-(N-Methyl-N-((1-methylpyrrolidin-2-yl)methyl)sulfamoyl)-1-(5-(2-methoxypyridin-4-yl)-2,3-dihydro-1H-inden-4-yl)urea] | ≤ 500 nM | ≤ 500 nM
COc1cc(-c2cc(F)c3c(c2NC(=O)NS(=O)(=O)N(C)CC2CCCN2C)CCC3)ccn1 (centres unmarked) [Example 125, 3-(N-Methyl-N-((1-methylpyrrolidin-2-yl)methyl)sulfamoyl)-1-(7-fluoro-5-(2-methoxypyridin-4-yl)-2,3-dihydro-1H-inden-4-yl)urea] | ≤ 500 nM | ≤ 500 nM
COc1cc(-c2cc(F)c3c(c2NC(=O)NS(=O)(=O)N2C[C@H]4C[C@@H]2CN4C)CCC3)ccn1 [Example 126, (1R,4R)—N-((7-Fluoro-5-(2-methoxypyridin-4-yl)-2,3-dihydro-1H-inden-4-yl)carbamoyl)-5-methyl-2,5-diazabicyclo[2.2.1]heptane-2-sulfonamide] | ≤ 500 nM | ≤ 500 nM
O=C(Nc1c(-c2ccncc2)cc(F)c2c1CCC2)NS(=O)(=O)CCc1ccccc1 [Example 138, N-((7-Fluoro-5-(pyridin-4-yl)-2,3-dihydro-1H-inden-4-yl)carbamoyl)-2-phenylethanesulfonamide] | ≤ 1000 nM | ≤ 10000 nM
COc1cc(-c2ccc3c(c2NC(=O)NS(=O)(=O)c2cnn(C4CC4)c2)CCC3)ccn1 [Example 145, 1-Cyclopropyl-N-((5-(2-methoxypyridin-4-yl)-2,3-dihydro-1H-inden-4-yl)carbamoyl)-1H-pyrazole-4-sulfonamide] | ≤ 500 nM | ≤ 1000 nM
CCN(CC)CCCS(=O)(=O)NC(=O)Nc1c(-c2ccncc2)cc(F)c2c1CCC2 [Example 149, 3-(Diethylamino)-N-((7-fluoro-5-(pyridin-4-yl)-2,3-dihydro-1H-inden-4-yl)carbamoyl)propane-1-sulfonamide] | ≤ 500 nM | ≤ 500 nM
CCN(CCCS(=O)(=O)NC(=O)Nc1c(-c2ccncc2)cc(F)c2c1CCC2)Cc1ccccc1 [Example 153, 3-(Benzyl(ethyl)amino)-N-((7-fluoro-5-(pyridin-4-yl)-2,3-dihydro-1H-inden-4-yl)carbamoyl)propane-1-sulfonamide] | ≤ 500 nM | ≤ 5000 nM
COc1cc(-c2cc(F)cc(C(C)C)c2NC(=O)NS(=O)(=O)CC2CCN(C)C2)ccn1 (centres unmarked) [Example 163, N-((4-Fluoro-2-isopropyl-6-(2-methoxypyridin-4-yl)phenyl)carbamoyl)-1-(1-methylpyrrolidin-3-yl) methanesulfonamide] | ≤ 500 nM | ≤ 500 nM
COc1cc(-c2ccc3c(c2NC(=O)NS(=O)(=O)CC2CCN(C)C2)CCC3)ccn1 (centres unmarked) [Example 164, N-((5-(2-Methoxypyridin-4-yl)-2,3-dihydro-1H-inden-4-yl)carbamoyl)-1-(1-methylpyrrolidin-3-yl) methanesulfonamide] | ≤ 500 nM | ≤ 500 nM
COCCN(CCOC)C(=O)c1cc(S(=O)(=O)NC(=O)Nc2c(-c3ccnc(OC(C)C)c3)cc(F)cc2C(C)C)nn1C [Example 166, 3-(N-((4-Fluoro-2-(2-isopropoxypyridin-4-yl)-6-isopropyl-phenyl)carbamoyl)sulfamoyl)-N,N-bis(2-methoxyethyl)-1-methyl-1H-pyrazole-5-carboxamide, sodium salt] | ≤ 5000 nM | ≤ 10000 nM
COCCN(CCOC)C(=O)c1cc(S(=O)(=O)NC(=O)Nc2c(-c3ccnc(OC)c3)ccc3c2CCC3)nn1C [Example 167, N,N-Bis(2-methoxyethyl)-3-(N-((5-(2-methoxypyridin-4-yl)-2,3-dihydro-1H-inden-4-yl)carbamoyl)sulfamoyl)-1-methyl-1H-pyrazole-5-carboxamide, sodium salt] | ≤ 500 nM | ≤ 500 nM
CC(C)Oc1cc(-c2cc(F)cc(C(C)C)c2NC(=O)NS(=O)(=O)c2cc(C(=O)N(C)C)n(C)n2)ccn1 [Example 168, 3-(N-((4-Fluoro-2-(2-isopropoxypyridin-4-yl)-6-isopropyl-phenyl)carbamoyl)sulfamoyl)-N,N,1-trimethyl-1H-pyrazole-5-carboxamide, sodium salt] | ≤ 500 nM | ≤ 5000 nM

The remaining lines, values ahead:

IC50 (NLRP3 [1]) | IC50 (NLRP3 [2]) | Structure (SMILES)
≤ 500 nM | ≤ 1000 nM | CC(C)n1cc(S(=O)(=O)NC(=O)Nc2c(-c3ccncc3)cc(F)c3c2CCC3)ccc1=O [Example 91, N-((7-Fluoro-5-(pyridin-4-yl)-2,3-dihydro-1H-inden-4-yl)carbamoyl)-1-isopropyl-6-oxo-1,6-dihydropyridine-3-sulfonamide]
≤ 500 nM | ≤ 1000 nM | COc1cc(-c2ccc3c(c2NC(=O)NS(=O)(=O)c2cnc(=O)n(C(C)C)c2)CCC3)ccn1 [Example 95, 1-Isopropyl-N-((5-(2-methoxypyridin-4-yl)-2,3-dihydro-1H-inden-4-yl)carbamoyl)-2-oxo-1,2-dihydropyrimidine-5-sulfonamide, sodium salt]
≤ 500 nM | ≤ 1000 nM | CN(C)c1cncc(S(=O)(=O)NC(=O)Nc2c(-c3ccncc3)cc(F)c3c2CCC3)n1 [Example 105, 6-(Dimethylamino)-N-((7-fluoro-5-(pyridin-4-yl)-2,3-dihydro-1H-inden-4-yl)carbamoyl)pyrazine-2-sulfonamide]
≤ 500 nM | ≤ 5000 nM | CC(C)c1cc(F)cc(-c2ccnc(C#N)c2)c1NC(=O)NS(=O)(=O)c1cnc(N(C)C)cn1 [Example 106, N-((2-(2-Cyanopyridin-4-yl)-4-fluoro-6-isopropylphenyl)carbamoyl)-5-(dimethylamino)pyrazine-2-sulfonamide]
≤ 500 nM | ≤ 5000 nM | COc1cc(-c2ccc3c(c2NC(=O)NS(=O)(=O)c2cnc(N(C)C)cn2)CCC3)ccn1 [Example 108, 5-(Dimethylamino)-N-((5-(2-methoxypyridin-4-yl)-2,3-dihydro-1H-inden-4-yl)carbamoyl)pyrazine-2-sulfonamide]
≤ 500 nM | ≤ 5000 nM | CN(C)c1cnc(S(=O)(=O)NC(=O)Nc2c(-c3ccncc3)cc(F)c3c2CCC3)cn1 [Example 109, 5-(Dimethylamino)-N-((7-fluoro-5-(pyridin-4-yl)-2,3-dihydro-1H-inden-4-yl)carbamoyl)pyrazine-2-sulfonamide]
≤ 500 nM | ≤ 5000 nM | Cc1cc(C)nc(S(=O)(=O)NC(=O)Nc2c(-c3ccnc(C#N)c3)cc(F)cc2C(C)C)n1 [Example 114, N-((2-(2-Cyanopyridin-4-yl)-4-fluoro-6-isopropylphenyl)carbamoyl)-4,6-dimethylpyrimidine-2-sulfonamide]
≤ 500 nM | ≤ 500 nM | COc1cc(-c2ccc3c(c2NC(=O)NS(=O)(=O)c2nc(C)cc(C)n2)CCC3)ccn1 [Example 116, N-((5-(2-Methoxypyridin-4-yl)-2,3-dihydro-1H-inden-4-yl)carbamoyl)-4,6-dimethylpyrimidine-2-sulfonamide]
≤ 500 nM | ≤ 1000 nM | Cc1cc(C)nc(S(=O)(=O)NC(=O)Nc2c(-c3ccncc3)cc(F)c3c2CCC3)n1 [Example 117, N-((7-Fluoro-5-(pyridin-4-yl)-2,3-dihydro-1H-inden-4-yl)carbamoyl)-4,6-dimethylpyrimidine-2-sulfonamide]
≤ 500 nM | ≤ 1000 nM | CC(C)c1cc(F)cc(-c2ccnc(C#N)c2)c1NC(=O)NS(=O)(=O)c1cc(N(C)C)cnn1 [Example 118, N-((2-(2-Cyanopyridin-4-yl)-4-fluoro-6-isopropylphenyl)carbamoyl)-5-(dimethylamino)pyridazine-3-sulfonamide]
≤ 500 nM | ≤ 5000 nM | COc1cc(-c2cc(F)cc(C(C)C)c2NC(=O)NS(=O)(=O)c2cc(N(C)C)cnn2)ccn1 [Example 119, 5-(Dimethylamino)-N-((4-fluoro-2-isopropyl-6-(2-methoxypyridin-4-yl)phenyl)carbamoyl) pyridazine-3-sulfonamide]
≤ 500 nM | ≤ 5000 nM | COc1cc(-c2ccc3c(c2NC(=O)NS(=O)(=O)c2cc(N(C)C)cnn2)CCC3)ccn1 [Example 120, 5-(Dimethylamino)-N-((5-(2-methoxypyridin-4-yl)-2,3-dihydro-1H-inden-4-yl)carbamoyl) pyridazine-3-sulfonamide]
